In US12673947B2 (Cytosinlab Therapeutics Co., Ltd., priority 2020, dated 2026):
pIC50: −log10 of the molar value. Where two headings read alike, the source gives them in different places.

Experiments:
FLT3 = biological target: T1, FLT3 (Homo sapiens, UniProt P36888); assay: FLT3 kinase in vitro inhibitory activity experiment (Caliper mobility shift, conversion rate); format: biochemical; conditions: IC50 class, read-out: Enzyme activity FLT3
T1 construct: purchased Carna 08-145
T1 sequence (P36888 27-993): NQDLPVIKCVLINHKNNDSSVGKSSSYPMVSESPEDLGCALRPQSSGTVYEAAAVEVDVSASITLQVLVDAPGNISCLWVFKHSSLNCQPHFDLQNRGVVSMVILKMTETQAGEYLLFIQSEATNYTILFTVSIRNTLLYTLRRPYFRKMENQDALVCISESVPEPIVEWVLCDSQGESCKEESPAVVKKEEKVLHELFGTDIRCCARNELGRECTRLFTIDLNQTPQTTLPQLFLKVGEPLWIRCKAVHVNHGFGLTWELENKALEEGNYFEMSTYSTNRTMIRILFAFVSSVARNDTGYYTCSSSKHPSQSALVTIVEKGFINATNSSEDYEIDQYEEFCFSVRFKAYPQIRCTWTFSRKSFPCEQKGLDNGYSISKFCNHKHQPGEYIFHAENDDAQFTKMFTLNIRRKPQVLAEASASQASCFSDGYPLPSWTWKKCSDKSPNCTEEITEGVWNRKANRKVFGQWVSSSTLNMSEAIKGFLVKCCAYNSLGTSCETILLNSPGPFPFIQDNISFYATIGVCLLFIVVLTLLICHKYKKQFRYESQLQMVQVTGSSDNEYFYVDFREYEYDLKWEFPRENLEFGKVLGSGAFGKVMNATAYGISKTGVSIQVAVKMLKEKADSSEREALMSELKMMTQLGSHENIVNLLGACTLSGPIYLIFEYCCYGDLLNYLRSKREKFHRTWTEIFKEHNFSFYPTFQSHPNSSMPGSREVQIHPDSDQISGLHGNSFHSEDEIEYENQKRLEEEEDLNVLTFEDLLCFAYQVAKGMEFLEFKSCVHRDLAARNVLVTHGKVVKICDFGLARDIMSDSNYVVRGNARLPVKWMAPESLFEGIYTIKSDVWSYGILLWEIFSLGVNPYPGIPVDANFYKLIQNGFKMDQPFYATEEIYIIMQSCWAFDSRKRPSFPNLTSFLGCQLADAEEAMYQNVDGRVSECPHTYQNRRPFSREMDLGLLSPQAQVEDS
Description: Biological Test Example 1: FLT3 Kinase In Vitro Inhibitory Activity Experiment
Centrifuge (manufacturer: Eppendorf, model: 5430), microplate reader (manufacturer: Perkin Elmer, model: Caliper EZ Reader II), Echo 550 (manufacturer: Labcyte, model: Echo 550)
1. Kinase Reaction Process
• (1) 1×Kinase buffer was prepared. • (2) Preparation of the serial compound dilutions: the initial stock (the concentration of the tested compound was 1 μM) was diluted by 3-fold into 10 concentrations, and was single-well detected. The compounds were series diluted to solutions of 10 different concentration (100-folds final concentration) in 384-well plates. 250 nl of solution was transferred to each well of 384-well plate by Echo550. 100% DMSO (250 nl) was added to negative control wells and positive control wells respectively. • (3) Kinase solution (2.5 times final concentration) was prepared with 1×Kinase buffer. • (4) 10 μL of kinase solution (2.5 times final concentration) was added to compound wells and positive control wells respectively: 1×Kinase buffer (10 μL) was added to the negative control wells. • (5) The solution was centrifuged at 1000 rpm for 30 seconds, shaked and mixed, and incubated at room temperature for 10 minutes. • (6) The mixed solution of ATP and Kinase substrate 2 (25/15 times final concentration) was prepared with 1×Kinase buffer. • (7) 15 μL of mixed solution ATP and Kinase substrate 2 (25/15 times final concentration) was added to initiated the reaction. • (8) 384 well plate was centrifuged at 1000 rpm for 30 seconds, shaked and mixed, then incubated at room temperature for 30 minutes. • (9) Stop solution (30 μL) was added to stop kinase reaction, and the solution was centrifuged at 1000 rpm for 30 seconds, shaked and mixed. • (10) The conversion rate was read with Caliper EZ Reader II. 2. Data Analysis Formula for Calculation
Wherein: Conversion %_sample is the reading of the sample conversion; Conversion %_min: negative control well.

MV4;11 cells = assay: MV4;11 in vitro inhibition of proliferation assay (CellTiter-Glo, 72 hours); format: cell-based; conditions: IC50 class, read-out: Inhibitory activity of cell proliferation MV4;11
From the text: Biological Test Example 2: MV4;11 In Vitro Inhibition of Proliferation Assay
The MV4;11 cell lines were purchased from the cell bank of the Chinese Academy of Sciences, IMDM medium (Gibco, catalog number 12440), fetal bovine serum (Gibco, catalog number 10099141C), penicillin-streptomycin antibiotics (Gibco, catalog number 15140122), DMSO (Sigma, catalog number D2650), Celltiter-Glo kit (CTG) (Promega, catalog number G7573), 384-well clear flat-bottom black cell culture plate (Corning, catalog number 3764), D300e digital dispenser (Tecan, catalog number D300e), SpectraMax i3x microplate reader (MOLECULAR DEVICES, catalog number i3x)
MV4;11 cell was cultivated in IMDM, 10% fetal bovine serum, 1% penicillin-streptomycin antibiotics, and cell density was kept less than 1.0*10E6 cells per ml to ensure that it was always in logarithmic growth phase. Cell viability was greater than 95%.
The compounds to be tested was diluted by 3 times from 10 uM with DMSO to 9 concentrations. 60 nl diluted compound was added to the cell culture plate and three duplicates were set up.
The prepared MV4;11 cell suspension was added to the 384-well plate, and 20 microliters of cell suspension was added per well, i.e., each well contained 2000 MV4;11 cells, of which the final concentration of DMSO was 0.3%. The cell culture plate was placed in 37° C. and incubated in a 5% carbon dioxide incubator for 72 hours.
20 μL of Promega CellTiter-Glo reagent was added to per well, and the plate was incubated at room temperature for 10 minutes when the luminescence signals were stable. SpectraMax i3x microplate reader was used to read signals.
The original data was converted into inhibition rate, and the IC50 value (half inhibition concentration) of the compound was determined by fitting the nonlinear four-parameter curve.

pIC50 (FLT3) | pIC50 (MV4;11 cells; Homo sapiens, MV4-11, 72 h) | SMILES | pIC50 (MV4;11 cells)
≥ 8.00 | ≥ 8.00 | CCc1nc2c(N)ncc(-c3cnn(C4CCC(C)(O)CC4)c3)c2nc1N[C@@H]1CC[C@H](O)C1 (single isomer, unassigned) [Compound 284] | –
≥ 8.00 | – | CCc1nc2c(N)ncc(-c3cnn(C4CCC(C)(O)CC4)c3)c2nc1N[C@@H]1CC[C@H](O)C1 (single isomer, unassigned) [Compound 285] | ≥ 8.00
< 6.30 | < 6.30 | CCc1nc2c(N)nccc2nc1NC1CCOCC1 [Compound 1] | –
6.30 to 7.00 | < 6.30 | CCc1nc2c(N)ncc(Br)c2nc1NC1CCOCC1 [Compound 2, 8-Bromo-3-ethyl-N2-(tetrahydro-2H-pyran-4-yl)pyridino[3,4-b]pyrazine-2,5-diamine] | –
7.00 to 8.00 | – | CCc1nc2c(N)ncc(-c3ccc(N4CCC(N5CCN(C)CC5)CC4)c(S(C)(=O)=O)c3)c2nc1NC1CCOCC1 [Compound 18, 3-ethyl-8-(4-(4-(4-methylpiperazine-1-yl)piperidine-1-yl)-3-(methylsulfyl)phenyl)-N2-(tetrahydro-2H-pyran-4-yl) pyridino [3,4-b] pyrazine-2,5-diamine] | –
≥ 8.00 | – | CCc1nc2c(N)ncc(-c3ccc(N4CCC(N5CCN(C)CC5)CC4)c(C(C)(C)O)c3)c2nc1NC1CCOCC1 [Compound 19, 2-(5-(5-amino-3-ethyl-2-((tetrahydro-2H-pyran-4-yl)amino)pyridino[3,4-b]pyrazine-8-yl)-2-(4-(4-methylpiperazine-1-yl)piperidine-1-yl)phenyl)propan-2-ol] | –
7.00 to 8.00 | – | COc1cc(-c2cnc(N)c3ncc(NC4CCOCC4)nc23)ccc1N1CCC(N2CCN(C)CC2)CC1 [Compound 25] | –
7.00 to 8.00 | – | CCc1nc2c(N)ncc(-c3ccn(C)c3)c2nc1NC1CCOCC1 [Compound 56] | –
7.00 to 8.00 | – | CCc1nc2c(N)ncc(-c3cnn(C)c3)c2nc1NC1CCOCC1 [Compound 57] | –
7.00 to 8.00 | – | CCc1nc2c(N)ncc(-c3ccc4c(c3)OCCN4C)c2nc1NC1CCOCC1 [Compound 61] | –
7.00 to 8.00 | – | CCc1nc2c(N)ncc(-c3ccc(N4CCC(N5CCN(C)CC5)CC4)c(OC)c3)c2nc1NC [Compound 76] | –
– | 7.00 to 8.00 | CCc1nc2c(N)ncc(-c3ccc(N4CCC(N5CCN(C)CC5)CC4)c(OC)c3)c2nc1NC1CCC(O)CC1 (stereo not drawn) [Compound 82] | –
≥ 8.00 | – | CCc1nc2c(N)ncc(-c3ccc(N4CCC(N5CCN(C)CC5)CC4)c(OC)c3)c2nc1N[C@H]1CC[C@@H](O)CC1 [Compound 82] | –
≥ 8.00 | – | CCc1nc2c(N)ncc(-c3cnn(CC4CCN(C)CC4)c3)c2nc1NC1CCOCC1 [Compound 137] | –
6.30 to 7.00 | – | CCc1nc2c(N)ncc(Br)c2nc1N[C@@H]1CC[C@H](O)C1 [Compound 151, (1S, 3R)-3-((5-amino-8-bromo-3-ethylpyridino[3,4-b]pyrazine-2-yl)amino)cyclopentan-1-ol] | –
≥ 8.00 | – | CCc1nc2c(N)ncc(-c3cnn(CC4CCNCC4)c3)c2nc1NC1CCOCC1 [Compound 154] | –
≥ 8.00 | – | CCc1nc2c(N)ncc(-c3cnn(C4CCN(c5cc(F)cc(F)c5)CC4)c3)c2nc1N[C@@H]1CC[C@H](O)C1 [Compound 173] | –
– | ≥ 8.00 | CCc1nc2c(N)ncc(-c3cnn(C4CCOCC4)c3)c2nc1N[C@@H]1CC[C@H](O)C1 [Compound 191] | –
≥ 8.00 | – | CCc1nc2c(N)ncc(-c3cnn(C4CCN(CCO)CC4)c3)c2nc1N[C@H]1CCOC1 [Compound 229] | –
≥ 8.00 | – | CCc1nc2c(N)ncc(-c3cnn(C(C)C)c3)c2nc1N[C@H]1CCOC1 [Compound 230] | –
≥ 8.00 | – | CCc1nc2c(N)ncc(-c3cnn(C4COC4)c3)c2nc1N[C@H]1CCOC1 [Compound 231] | –
≥ 8.00 | – | CCc1nc2c(N)ncc(-c3cnn(C4CCN(C5CCN(C)CC5)CC4)c3)c2nc1N[C@@H]1CCOC1 [Compound 250] | –
≥ 8.00 | – | CCc1nc2c(N)ncc(-c3ccc(N4CCC(N5CCN(C)CC5)CC4)c(OC)c3)c2nc1N[C@H]1CCC[C@@H](O)C1 [Compound 255] | –
≥ 8.00 | – | CCc1nc2c(N)ncc(-c3ccc(N4CCC(N5CCN(C)CC5)CC4)c(OC)c3)c2nc1N[C@H]1CCC[C@H](O)C1 [Compound 256] | –
≥ 8.00 | – | CCc1nc2c(N)ncc(-c3cnn(C4CCNCC4)c3)c2nc1N[C@@H]1CCOC1 [Compound 258] | –
≥ 8.00 | – | CCc1nc2c(N)ncc(-c3cnn(C4CCNCC4)c3)c2nc1N[C@H]1CCOC1 [Compound 259, (S)-3-ethyl-8-(1-(piperidin-4-yl)-1H-pyrazol-4-yl)-N2-(tetrahydrofuran-3-yl)pyridino[3,4-b]pyrazin-2,5-diamine] | –
7.00 to 8.00 | – | CCc1nc2c(Nc3cccnc3)ncc(-c3cnn(C4CCNCC4)c3)c2nc1N[C@@H]1CC[C@H](O)C1 [Compound 262] | –
< 6.30 | – | CCc1nc2c(N)nccc2nc1N[C@@H]1CC[C@H](O)C1 [Compound 263, (1S,3R)-3-((5-amino-3-ethylpyridino[3,4-b]pyrazine-2-yl)amino)cyclopentan-1-ol] | –
≥ 8.00 | – | CCc1nc2c(N)ncc(-c3cnn(C4CCN(C)CC4)c3)c2nc1N(C)CC(C)(C)O [Compound 264] | –
– | ≥ 8.00 | CCc1nc2c(N)ncc(-c3cnn(-c4ccc(C#N)cn4)c3)c2nc1N[C@@H]1CC[C@H](O)C1 [Compound 300] | –

SMILES | pIC50 (FLT3) | pIC50 (MV4;11 cells; Homo sapiens, MV4-11, 72 h) | pIC50 (MV4;11 cells)
CCc1nc2c(N)ncc(-c3cnn(C4C[C@H]5CC[C@@H](C4)N5)c3)c2nc1N[C@@H]1CC[C@H](O)C1 (single isomer, unassigned) [Compound 162] | ≥ 8.00 | – | 6.30 to 7.00
CCc1nc2c(N)ncc(-c3cnn(C4C[C@H]5CC[C@@H](C4)N5)c3)c2nc1N[C@@H]1CC[C@H](O)C1 (single isomer, unassigned) [Compound 163] | ≥ 8.00 | – | 7.00 to 8.00
CCc1nc2c(N)ncc(-c3cnn(C4C[C@H]5CC[C@@H](C4)N5C)c3)c2nc1N[C@@H]1CC[C@H](O)C1 (single isomer, unassigned) [Compound 164] | ≥ 8.00 | 7.00 to 8.00 | –
CCc1nc2c(N)ncc(-c3cnn(C4C[C@H]5CC[C@@H](C4)N5C)c3)c2nc1N[C@@H]1CC[C@H](O)C1 (single isomer, unassigned) [Compound 165] | ≥ 8.00 | – | ≥ 8.00
